The values below come from ChEMBL document CHEMBL5465560, “Selectivity Literature for EUbOPEN Chemogenomic Library” (2024).

In assay [1] the target is Bone morphogenetic protein receptor type-1B (Homo sapiens, UniProt O00238). The assay can be described thus: Selectivity interaction (KinomeScan (DiscoverX)) EUB0000607a BMPR1B. To be noted: at 10 µM.
The target in assay [2] is T1, Ephrin type-A receptor 1 (Homo sapiens) (UniProt P21709).
T1 sequence (whole entry): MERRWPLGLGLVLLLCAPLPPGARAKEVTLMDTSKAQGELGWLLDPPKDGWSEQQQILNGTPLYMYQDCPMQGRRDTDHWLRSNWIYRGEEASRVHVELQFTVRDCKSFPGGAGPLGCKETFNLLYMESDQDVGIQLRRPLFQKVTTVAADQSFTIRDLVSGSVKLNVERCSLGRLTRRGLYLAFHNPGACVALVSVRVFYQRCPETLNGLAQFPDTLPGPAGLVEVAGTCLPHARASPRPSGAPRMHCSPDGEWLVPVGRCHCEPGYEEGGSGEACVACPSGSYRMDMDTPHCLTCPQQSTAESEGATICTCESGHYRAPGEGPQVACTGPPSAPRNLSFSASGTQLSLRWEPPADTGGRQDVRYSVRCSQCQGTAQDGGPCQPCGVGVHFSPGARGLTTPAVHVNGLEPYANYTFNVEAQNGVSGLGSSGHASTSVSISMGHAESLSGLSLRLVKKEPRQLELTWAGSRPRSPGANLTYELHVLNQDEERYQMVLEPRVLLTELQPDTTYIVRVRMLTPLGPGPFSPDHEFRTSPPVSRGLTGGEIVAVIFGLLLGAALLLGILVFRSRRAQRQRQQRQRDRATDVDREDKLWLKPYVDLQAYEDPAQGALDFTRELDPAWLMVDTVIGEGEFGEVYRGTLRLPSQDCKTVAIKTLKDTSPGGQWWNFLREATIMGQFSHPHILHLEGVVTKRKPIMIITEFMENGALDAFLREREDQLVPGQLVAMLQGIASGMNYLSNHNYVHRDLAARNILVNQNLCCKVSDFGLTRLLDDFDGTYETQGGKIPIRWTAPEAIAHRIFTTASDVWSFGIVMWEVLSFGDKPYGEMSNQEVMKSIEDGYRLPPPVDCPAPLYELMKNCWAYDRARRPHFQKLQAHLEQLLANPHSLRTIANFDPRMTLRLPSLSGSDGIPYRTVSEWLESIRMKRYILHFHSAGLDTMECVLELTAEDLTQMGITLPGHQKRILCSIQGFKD
The conditions noted are these: at 10 µM.

In assay [3] the target is Fibroblast growth factor receptor 4 (Homo sapiens, UniProt P22455). As to the kind of experiment: Selectivity interaction (KinomeScan (DiscoverX)) EUB0001619a FGFR4. The conditions noted are these: at 1 µM.
Chain of Fibroblast growth factor receptor 4 (P22455 22-802 limits assumed): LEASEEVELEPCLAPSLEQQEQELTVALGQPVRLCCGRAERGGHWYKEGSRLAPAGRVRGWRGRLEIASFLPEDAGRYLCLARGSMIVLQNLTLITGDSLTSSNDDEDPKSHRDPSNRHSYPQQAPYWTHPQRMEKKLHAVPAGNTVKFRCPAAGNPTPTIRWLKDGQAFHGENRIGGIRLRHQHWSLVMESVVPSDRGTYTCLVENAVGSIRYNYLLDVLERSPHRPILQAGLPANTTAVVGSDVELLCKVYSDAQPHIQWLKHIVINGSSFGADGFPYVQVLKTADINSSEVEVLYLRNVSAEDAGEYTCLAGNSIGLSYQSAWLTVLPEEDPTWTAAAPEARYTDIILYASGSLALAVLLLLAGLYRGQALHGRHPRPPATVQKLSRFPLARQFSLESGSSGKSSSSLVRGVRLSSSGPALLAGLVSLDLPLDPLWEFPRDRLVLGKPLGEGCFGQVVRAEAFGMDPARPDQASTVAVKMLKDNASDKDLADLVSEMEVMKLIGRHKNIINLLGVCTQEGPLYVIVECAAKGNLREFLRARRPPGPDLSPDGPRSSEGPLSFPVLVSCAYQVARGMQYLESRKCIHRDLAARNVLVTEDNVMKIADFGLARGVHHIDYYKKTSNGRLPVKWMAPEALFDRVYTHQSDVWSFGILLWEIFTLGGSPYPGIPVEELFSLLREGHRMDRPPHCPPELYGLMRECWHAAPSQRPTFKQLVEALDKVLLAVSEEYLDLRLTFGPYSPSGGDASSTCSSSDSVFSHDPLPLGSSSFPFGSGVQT
The target in assay [4] is Serine/threonine-protein kinase PAK 4 (Homo sapiens, UniProt O96013). The assay can be described thus: Selectivity interaction (KinomeScan (DiscoverX)) EUB0001619a PAK4. To be noted: at 1 µM.
For assay [5], the target named is Tyrosine-protein kinase SYK (Homo sapiens, UniProt P43405). The assay can be described thus: Selectivity interaction (ActivX KiNativ screen (ex vivo kinase selectivity in human PBMCs)) EUB0001619a SYK. It is filed as cell-based. To be noted: PBMC, at 1 µM.
Assay [6] deals with Tyrosine-protein kinase ABL1 (Homo sapiens, UniProt P00519). The assay can be described thus: Selectivity interaction (Kinase panel (Invitrogen)) EUB0000639a ABL1. The conditions noted are these: at 200 nM.
Chain of Tyrosine-protein kinase ABL1 (P00519 whole entry): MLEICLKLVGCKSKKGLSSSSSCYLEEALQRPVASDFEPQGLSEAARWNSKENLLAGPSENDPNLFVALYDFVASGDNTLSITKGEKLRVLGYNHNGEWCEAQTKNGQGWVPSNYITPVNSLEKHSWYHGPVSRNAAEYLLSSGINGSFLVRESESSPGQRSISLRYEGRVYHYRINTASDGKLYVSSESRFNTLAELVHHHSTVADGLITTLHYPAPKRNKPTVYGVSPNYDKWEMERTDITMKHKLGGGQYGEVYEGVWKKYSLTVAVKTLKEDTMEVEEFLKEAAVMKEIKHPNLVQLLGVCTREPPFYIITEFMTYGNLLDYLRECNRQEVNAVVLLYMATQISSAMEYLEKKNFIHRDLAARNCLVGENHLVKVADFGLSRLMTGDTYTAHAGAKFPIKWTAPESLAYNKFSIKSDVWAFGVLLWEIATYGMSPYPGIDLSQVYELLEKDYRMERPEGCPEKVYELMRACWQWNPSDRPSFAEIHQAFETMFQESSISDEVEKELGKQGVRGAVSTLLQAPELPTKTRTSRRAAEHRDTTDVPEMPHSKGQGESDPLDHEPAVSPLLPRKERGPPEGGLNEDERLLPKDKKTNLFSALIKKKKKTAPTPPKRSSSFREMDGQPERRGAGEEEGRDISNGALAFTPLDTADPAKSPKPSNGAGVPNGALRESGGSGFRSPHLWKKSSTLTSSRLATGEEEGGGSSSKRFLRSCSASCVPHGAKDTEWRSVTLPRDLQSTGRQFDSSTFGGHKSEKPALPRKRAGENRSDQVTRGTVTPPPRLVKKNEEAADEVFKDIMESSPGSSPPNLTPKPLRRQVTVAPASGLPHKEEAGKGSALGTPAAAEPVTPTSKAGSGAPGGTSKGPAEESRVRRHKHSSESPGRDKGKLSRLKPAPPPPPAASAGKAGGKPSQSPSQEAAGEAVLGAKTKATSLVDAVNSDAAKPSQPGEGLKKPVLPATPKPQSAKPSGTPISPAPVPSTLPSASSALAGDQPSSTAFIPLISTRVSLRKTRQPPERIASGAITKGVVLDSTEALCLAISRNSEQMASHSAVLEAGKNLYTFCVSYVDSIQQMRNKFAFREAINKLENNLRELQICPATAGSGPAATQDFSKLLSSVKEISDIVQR
Assay [7] concerns the target Dual specificity mitogen-activated protein kinase kinase 2 (Homo sapiens) (UniProt P36507). As to the kind of experiment: Selectivity interaction (Kinase panel (Invitrogen)) EUB0000639a MAP2K2. To be noted: at 200 nM.
Assay [8] addresses Serine/threonine-protein kinase WNK4 (Homo sapiens) (UniProt Q96J92). As to the kind of experiment: Selectivity interaction (KinomeScan (DiscoverX)) EUB0000695a WNK4. To be noted: at 100 nM.
Assay [9] deals with Calcium/calmodulin-dependent protein kinase kinase 1 (Homo sapiens) (UniProt Q8N5S9). As to the kind of experiment: Selectivity interaction (ProQinase) EUB0000171b CAMKK1.
Chain of Calcium/calmodulin-dependent protein kinase kinase 1 (Homo sapiens) (Q8N5S9 whole entry, looked up): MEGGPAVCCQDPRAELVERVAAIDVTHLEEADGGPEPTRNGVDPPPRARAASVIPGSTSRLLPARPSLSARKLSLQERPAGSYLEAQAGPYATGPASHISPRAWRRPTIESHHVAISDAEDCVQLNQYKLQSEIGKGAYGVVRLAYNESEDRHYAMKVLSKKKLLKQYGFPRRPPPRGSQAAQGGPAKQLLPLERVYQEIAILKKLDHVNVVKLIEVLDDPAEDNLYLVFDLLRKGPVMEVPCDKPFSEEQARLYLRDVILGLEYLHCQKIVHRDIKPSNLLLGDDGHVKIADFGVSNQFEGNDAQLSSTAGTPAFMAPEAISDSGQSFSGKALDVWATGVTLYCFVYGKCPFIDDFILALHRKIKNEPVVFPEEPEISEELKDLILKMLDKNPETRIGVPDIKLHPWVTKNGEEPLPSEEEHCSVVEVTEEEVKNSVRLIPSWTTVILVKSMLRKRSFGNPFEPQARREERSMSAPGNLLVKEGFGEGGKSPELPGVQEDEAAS
Assay [10] concerns the target Mitogen-activated protein kinase kinase kinase 1 (Homo sapiens, UniProt Q13233). As to the kind of experiment: Selectivity interaction (ProQinase) EUB0000171b MAP3K1.
In assay [11] the target is T2, Cyclin-dependent kinase 11A (Homo sapiens) (UniProt Q9UQ88).
T2 sequence (whole entry): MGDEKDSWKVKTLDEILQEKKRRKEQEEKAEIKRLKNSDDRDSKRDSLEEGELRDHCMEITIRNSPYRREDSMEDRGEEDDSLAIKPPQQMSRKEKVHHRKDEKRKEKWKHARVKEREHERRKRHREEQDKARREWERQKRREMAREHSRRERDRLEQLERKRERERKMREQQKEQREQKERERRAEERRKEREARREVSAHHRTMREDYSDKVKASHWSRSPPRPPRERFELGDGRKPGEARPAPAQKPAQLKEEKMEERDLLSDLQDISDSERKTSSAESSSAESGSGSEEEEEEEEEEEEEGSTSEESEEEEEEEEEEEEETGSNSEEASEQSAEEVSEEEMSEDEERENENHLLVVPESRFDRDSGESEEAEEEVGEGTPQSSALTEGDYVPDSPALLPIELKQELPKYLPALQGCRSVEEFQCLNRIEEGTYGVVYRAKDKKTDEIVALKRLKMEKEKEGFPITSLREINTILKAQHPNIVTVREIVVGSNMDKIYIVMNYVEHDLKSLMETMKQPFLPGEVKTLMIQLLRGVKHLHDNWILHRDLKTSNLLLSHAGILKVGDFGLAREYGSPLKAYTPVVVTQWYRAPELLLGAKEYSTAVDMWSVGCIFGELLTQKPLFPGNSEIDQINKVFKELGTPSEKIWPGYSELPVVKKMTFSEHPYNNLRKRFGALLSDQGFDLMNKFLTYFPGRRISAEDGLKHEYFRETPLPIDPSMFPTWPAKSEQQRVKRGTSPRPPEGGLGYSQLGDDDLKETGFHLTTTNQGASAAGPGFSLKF
As to the kind of experiment: Selectivity interaction (KinomeScan (DiscoverX)) EUB0000092b CDK11A. To be noted: at 10 µM.

Assay [12] addresses T3, Aurora kinase C (Homo sapiens) (UniProt Q9UQB9).
T3 sequence (whole entry): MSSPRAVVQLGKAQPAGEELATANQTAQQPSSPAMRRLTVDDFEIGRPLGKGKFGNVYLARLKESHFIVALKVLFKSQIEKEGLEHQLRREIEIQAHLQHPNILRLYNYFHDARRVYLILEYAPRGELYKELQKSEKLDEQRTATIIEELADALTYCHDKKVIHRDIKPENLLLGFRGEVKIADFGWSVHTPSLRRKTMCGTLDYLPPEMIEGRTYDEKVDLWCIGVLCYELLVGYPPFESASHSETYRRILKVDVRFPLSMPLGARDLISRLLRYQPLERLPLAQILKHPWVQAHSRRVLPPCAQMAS
The assay can be described thus: Selectivity interaction (KinomeScan (DiscoverX)) EUB0000045b AURKC.

Chain of Mitogen-activated protein kinase kinase kinase 1 (Q13233 whole entry): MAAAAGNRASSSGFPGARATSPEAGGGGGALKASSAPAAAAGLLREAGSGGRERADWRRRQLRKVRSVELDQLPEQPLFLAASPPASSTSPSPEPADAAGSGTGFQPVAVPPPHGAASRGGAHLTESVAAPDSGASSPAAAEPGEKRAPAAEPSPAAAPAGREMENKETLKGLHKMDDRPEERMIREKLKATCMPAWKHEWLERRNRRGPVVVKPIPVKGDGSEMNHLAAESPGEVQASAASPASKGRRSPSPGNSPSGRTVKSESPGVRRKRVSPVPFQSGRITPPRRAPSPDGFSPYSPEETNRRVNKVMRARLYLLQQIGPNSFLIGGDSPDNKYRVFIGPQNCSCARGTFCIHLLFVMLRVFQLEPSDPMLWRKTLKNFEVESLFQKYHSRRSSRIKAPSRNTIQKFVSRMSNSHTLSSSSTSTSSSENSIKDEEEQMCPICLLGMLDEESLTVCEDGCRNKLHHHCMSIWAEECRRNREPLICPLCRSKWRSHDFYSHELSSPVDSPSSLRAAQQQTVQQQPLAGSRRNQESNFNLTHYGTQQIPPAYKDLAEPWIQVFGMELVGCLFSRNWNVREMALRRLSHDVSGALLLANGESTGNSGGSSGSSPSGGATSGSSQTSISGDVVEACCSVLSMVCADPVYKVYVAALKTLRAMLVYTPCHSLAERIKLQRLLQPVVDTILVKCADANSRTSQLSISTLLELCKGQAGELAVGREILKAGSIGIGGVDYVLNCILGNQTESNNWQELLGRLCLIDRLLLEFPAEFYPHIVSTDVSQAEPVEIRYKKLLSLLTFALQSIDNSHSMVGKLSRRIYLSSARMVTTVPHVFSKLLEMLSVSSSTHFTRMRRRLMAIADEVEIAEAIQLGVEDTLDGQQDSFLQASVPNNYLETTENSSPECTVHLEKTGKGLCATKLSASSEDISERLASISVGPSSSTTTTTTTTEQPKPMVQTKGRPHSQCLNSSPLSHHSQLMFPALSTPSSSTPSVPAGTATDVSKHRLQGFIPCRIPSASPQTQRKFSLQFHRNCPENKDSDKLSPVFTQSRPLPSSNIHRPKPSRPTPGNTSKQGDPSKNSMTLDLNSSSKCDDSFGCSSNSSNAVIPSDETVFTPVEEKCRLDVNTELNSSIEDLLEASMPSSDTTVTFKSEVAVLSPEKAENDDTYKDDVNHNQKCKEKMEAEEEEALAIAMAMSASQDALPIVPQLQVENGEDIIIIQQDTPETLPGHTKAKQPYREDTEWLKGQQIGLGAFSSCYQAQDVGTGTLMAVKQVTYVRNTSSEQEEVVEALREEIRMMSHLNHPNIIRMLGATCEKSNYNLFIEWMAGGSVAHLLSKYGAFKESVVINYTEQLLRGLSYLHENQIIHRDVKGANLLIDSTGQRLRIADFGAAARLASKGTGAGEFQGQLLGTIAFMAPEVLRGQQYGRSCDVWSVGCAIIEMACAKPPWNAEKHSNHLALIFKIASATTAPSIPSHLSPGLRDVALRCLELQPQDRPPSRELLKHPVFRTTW
Chain of Bone morphogenetic protein receptor type-1B (O00238 whole entry): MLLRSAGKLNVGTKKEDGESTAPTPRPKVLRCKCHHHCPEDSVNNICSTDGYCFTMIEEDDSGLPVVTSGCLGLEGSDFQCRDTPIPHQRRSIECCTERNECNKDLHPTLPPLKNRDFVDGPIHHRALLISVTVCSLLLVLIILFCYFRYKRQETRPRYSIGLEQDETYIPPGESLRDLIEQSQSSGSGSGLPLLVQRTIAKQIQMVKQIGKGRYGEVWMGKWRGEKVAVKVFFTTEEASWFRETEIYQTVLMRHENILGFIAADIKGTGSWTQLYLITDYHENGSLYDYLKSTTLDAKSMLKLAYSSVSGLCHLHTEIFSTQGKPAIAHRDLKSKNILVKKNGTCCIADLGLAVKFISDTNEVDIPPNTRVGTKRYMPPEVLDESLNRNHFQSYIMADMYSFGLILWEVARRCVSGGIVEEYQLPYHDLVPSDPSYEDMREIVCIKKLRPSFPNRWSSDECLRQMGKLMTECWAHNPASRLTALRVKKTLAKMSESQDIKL
Chain of Dual specificity mitogen-activated protein kinase kinase 2 (Homo sapiens) (P36507 whole entry): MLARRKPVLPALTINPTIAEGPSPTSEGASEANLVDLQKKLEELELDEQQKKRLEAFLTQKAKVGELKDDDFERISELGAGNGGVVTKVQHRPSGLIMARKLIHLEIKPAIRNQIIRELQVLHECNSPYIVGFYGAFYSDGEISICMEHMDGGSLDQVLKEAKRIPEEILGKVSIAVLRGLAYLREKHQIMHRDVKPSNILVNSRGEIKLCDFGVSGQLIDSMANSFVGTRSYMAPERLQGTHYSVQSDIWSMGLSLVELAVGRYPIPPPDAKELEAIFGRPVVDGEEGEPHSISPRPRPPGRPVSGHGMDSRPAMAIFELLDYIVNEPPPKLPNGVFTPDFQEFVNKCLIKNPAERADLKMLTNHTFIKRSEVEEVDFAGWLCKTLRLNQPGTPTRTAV

`CNC(=O)Nc1ccc(-c2nc(N3CC4CCC(C3)O4)c3cnn(C4CCC5(CC4)OCCO5)c3n2)cc1`: the % of control in assay [1] came to 93%.

In the case of `Cc1cc([C@@H](C)Nc2ccccc2C(=O)O)c2nc(N3CCOCC3)cc(=O)n2c1` [AZD-6482], in assay [2], the % of control was 100%. `N#Cc1cccc(-c2c[nH]c3ncnc(N4CCOCC4)c23)c1`: the % of control in [3] worked out at 74%; in assay [4], 100%. In addition, the % of inhibition in [5] was 6%. On to `CC[C@@H]1[C@H](F)C(=O)N[C@@H]1COc1nccc2cc(C(N)=O)c(OC)cc12` [ZIMLOVISERTIB], for which the % of inhibition was 2.51% in [6] and 5.73% in assay [7]. With `Cc1cc(F)c(C(=O)Nc2cccc(-c3nncn3C(C)C)n2)cc1-n1cnc(C2CC2)c1`, the % of control in assay [8] came to 100%. As for `C=CC(=O)Nc1cccc(C(=O)Nc2ccc(Nc3cc(-c4[nH]c(SC)nc4C)ccn3)cc2)c1`, the % of control in [9] (at 1 µM) was 98%; in [9] (at 5 µM), 108%; in assay [10] (at 1 µM), 100%; in [10] (at 5 µM) it was 96%. In [11], `CCC(=O)N1CCN(c2ccc(-n3c(=O)ccc4cnc5ccc(-c6cnc7ccccc7c6)cc5c43)cc2C(F)(F)F)CC1` had a % of control of 100%. In the case of `C=CC(=O)Nc1cc(-n2c(=O)ccc3cnc4ccc(-c5ccc(NS(C)(=O)=O)cc5)cc4c32)ccc1C`, the % of control in assay [12] (at 1 µM) was determined as 90%; in assay [12] (at 10 µM), 63%.
